Results as given in US20230048888A1, “USE OF TRIAZOLOTRIAZINE DERIVATIVE IN TREATMENT OF DISEASES” (ZHEJIANG VIMGREEN PHARMACEUTICALS, LTD., priority 2019, published 2023).
Blank lines part the entries; values can stand above or below the molecule they belong to.

Assays:
A20 tumor cells = assay: A20 murine lymphoma (B lymphocytes) homotransplantation model; type: in vivo, BALB/c mice; conditions: for TGI (%): 50 mg/kg p.o. QD
Protocol: A20 murine lymphoma (B lymphocyte) homotransplantation model is a classic pharmaceutical effect evaluation model for B lymphocyte cancer. It was constructed by subcutaneously inoculating homogeneous A20 tumor cells into the right ribs of female BALB/c mice by the same species. The test compounds were administrated to evaluate their inhibitory effects on tumor growth in the model.
A20 tumor cells were cultured in an RPMI 1640 medium containing inactivated 10% fetal bovine serum, 100 U/ml penicillin, 100 μg/ml streptomycin and 0.05 mM 2-mercaptoethanol in an incubator at 37° C. in the presence of 5% CO2; and after the cells grew all over, the tumor cells were divided and passaged in respective flasks every 3 to 4 days. The tumor cells in the logarithmic growth phase were used for in vivo inoculation of tumors.
The A20 tumor cells resuspended in a serum-free RPMI 1640 culture solution were inoculated subcutaneously at 3×10^5/100 μl to the right ribs of experimental animals. A total of 30 animals were inoculated. On the first day after tumor cell inoculation, 24 animals with a uniform body weight were selected in terms of body weight, and were grouped for dosage, with 12 animals in each group. The specific dosage regimen was carried out according to the experimental design.
Tumor volume: the tumor volume was measured 3 times a week with a vernier caliper, and the long and short diameters of the tumor were measured. The volume was calculated with a formula as follows:
volume=0.5×long diameter×short diameter^2.
Tumor growth inhibition rate (TGI, %)=(1−T/C)×100,
T/C(%)=(average tumor volume of treatment groups on the current day-average tumor volume of treatment groups on the initial day D0)/(average tumor volume of the control group on the current day-average tumor volume of the control group on the initial day D0)×100.
Statistical analysis of tumor volume was carried out between groups by the SPSS T-test.

[1] = test system: murine colon cancer MC38 cell line; assay: Subcutaneous homotransplantation of murine colon cancer MC38 cell line in C57BL/6 female mice; type: in vivo; conditions: for T/C (%) / TGI (%) / Tumor volume: Day 22
Protocol: The MC38 mouse colon cancer cell model is a commonly used model for verifying a pharmaceutical effect on the colon cancer. It is mostly used to study the occurrence and metastasis direction of the colorectal cancer, and has become a common approach to the pharmaceutical effect verification for tumors. The anti-tumor effect of the subcutaneous homotransplantation of a test drug in a murine colon cancer MC38 cell line of C57BL/6 female mouse model was evaluated.
MC38 cells were cultured in a DMEM culture solution containing 10% fetal bovine serum. The MC38 cells in the exponential growth phase were collected and resuspended in PBS to a suitable concentration for subcutaneous tumor inoculation in mice.
Female mice were subcutaneously inoculated with 1×10^6 MC38 cells on the right side. The day of inoculation was defined as Day 0. On the second day (Day 1) of […] cell inoculation, the mice were administered randomly according to body weight. The solution of Compound 22 was prepared at 3 mg/mL and 10 mg/mL respectively for later use.
Formula for calculating tumor volume: tumor volume (mm^3)=½×(a×b^2) (a representing a long diameter and b representing a short diameter);
Tumor proliferation rate, T/C %, was a percentage ratio of tumor volume or tumor weight between the treatment group and the control group at a certain time point. It was calculated with a formula was as follows:
T/C %=TTV/CTV×100% (TTV (TTV: the average TV of the treatment group at a specific time point;
All experimental results were represented as the average tumor volume±SEM (mean standard error). Statistical analysis between different groups were conducted to select the optimal drug treatment point (usually after the last dosage). A comparison was conducted with the independent sample T test method to determine if there is a significant difference in tumor volume between the treatment group ad the control group. All data were analyzed with SPSS 18.0. P<0.05 indicated a significant difference.

[2] = target: T1, Human adenosine ADORA2A receptor membrane protein (Homo sapiens, UniProt P29274); assay: Radioisotope ligand competitive binding, ADORA2A ([3H] CGS-21680); conditions: ADORA2A (IC50, nM, n = 3), binding test
T1 construct: purchased PerkinElmer RBHA2AM400UA
Protocol: ADORA2A: 50 mM Tris-HCl pH 7.4, 10 mM MgCl2, 1 mM EDTA
4) Preparation of compounds: the test compounds and the reference compounds were separately diluted with 100% DMSO.
1 μL of a sample to be tested and 1 μL of a reference compound were added to a 96-well plate in sequence. […] 100 μL of cells and 100 μL of isotopes were added to all experimental wells. The 96-well plate was sealed; ADORA1, ADORA2B, and ADORA3 were incubated for 1 hour on a shaker (300 rpm) at room temperature (22° C.); and ADORA2A was incubated for 2 hours on a shaker (300 rpm) at room temperature (22° C.). At the same time, a GF/C filter plate was soaked with ADORA1, ADORA2A, ADORA2B, and ADORA3 by using 0.3% PEI for at least 30 minutes at room temperature, at 50 μL/well. After the incubation was completed, the incubated reaction system was collected onto the GF/C filter plate with a Harvester, washed 4 times and then dried for 0.5 hours in an oven at 50° C. The bottom of the dried GF/C filter plate was sealed with a film, 50 μL of scintillation solution was added to each well, which was then sealed with a Top-seal-A film. With Microbeta readings, the data was analyzed by GraphPad Prism 5.0.
% Inhibition=100×(1−(Sample_raw value−Low control_Average)/(High control_Average−Low control_Average))
The data was fitted with “log(inhibitor) vs response-variable slope” in GraphPad Prism 5.0 to obtain IC50.

[3] = 30 mg/kg p.o. QD combined with Anti-PD-1 100 μg/animal i.p.

T1 sequence (P29274 whole entry): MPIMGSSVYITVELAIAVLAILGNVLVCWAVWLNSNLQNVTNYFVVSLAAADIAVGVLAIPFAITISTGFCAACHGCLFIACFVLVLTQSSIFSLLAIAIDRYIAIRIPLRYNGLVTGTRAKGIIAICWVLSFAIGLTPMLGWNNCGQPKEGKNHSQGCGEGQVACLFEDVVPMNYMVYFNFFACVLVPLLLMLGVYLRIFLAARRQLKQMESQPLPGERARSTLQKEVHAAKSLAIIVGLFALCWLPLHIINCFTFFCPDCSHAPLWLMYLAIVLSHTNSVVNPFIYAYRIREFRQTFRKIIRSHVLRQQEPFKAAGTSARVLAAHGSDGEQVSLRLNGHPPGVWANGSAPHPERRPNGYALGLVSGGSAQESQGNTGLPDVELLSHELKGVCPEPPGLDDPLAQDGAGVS

Compound: Nc1nc(NCCc2ccc(NC3COC3)cc2)nc2nc(-c3ccco3)nn12 [Compound 22, 2-(furan-2-yl)-N5-(4-(oxetan-3-ylamino)phenethyl)-[1,2,4]triazolo[1,5-a][1,3,5]triazine-5,7-diamine]
Clinical abnormalities during the dosage (A20 tumor cells; 50 mg/kg p.o. QD 24 days): no obvious clinical abnormalities were observed
TGI (%) (A20 tumor cells; Day 6 after tumor inoculation): 11.9%
TGI (%) (A20 tumor cells; Day 8): 8.4%
TGI (%) (A20 tumor cells; Day 10): 7.0%
TGI (%) (A20 tumor cells; Day 13): 16.5%
TGI (%) (A20 tumor cells; Day 15): 29.4%
TGI (%) (A20 tumor cells; Day 17): 32.6%
TGI (%) (A20 tumor cells; Day 20): 28.5%
TGI (%) (A20 tumor cells; Day 22): 36.4%
TGI (%) (A20 tumor cells; Day 24): 35.6%
T/C (%) ([1]; 30 mg/kg p.o. QD): 66%
TGI (%) ([1]; 30 mg/kg p.o. QD): 34%
Tumor volume ([1]; 30 mg/kg p.o. QD): 1205.60 ± 259.65 mm^3
T/C (%) [1, 3]: 15%
TGI (%) [1, 3]: 85%
Tumor volume [1, 3]: 268.89 ± 57.10 mm^3
T/C (%) ([1]; 100 mg/kg p.o. QD): 52%
TGI (%) ([1]; 100 mg/kg p.o. QD): 48%
Tumor volume ([1]; 100 mg/kg p.o. QD): 951.28 ± 116.30 mm^3
Animal death / changes in body weight ([1]; alone or combined with anti-PD-1 antibody): no animal death or significant changes in body weight
IC50 ([2]; Table 10 (IC50)): 0.96 ± 0.11 nM
IC50 ([2]; Table 11): 0.85 nM

IC50 ([2]; Table 10 (IC50)): 1.85 ± 0.27 nM
IC50 ([2]; Table 11): 1.64 nM
Compound: Cn1nnc(-c2ccc(CCNc3nc(N)n4nc(-c5ccco5)nc4n3)cc2)n1 [Compound 40, N5-(4-(2-methyl-2H-tetrazol-5-yl)phenethyl)-2-(furan-2-yl)-[1,2,4]triazolo[1,5-a][1,3,5]triazine-5,7-diamine]
